{"source": "patent US20250017888A1", "about": "“COMPOUNDS FOR TREATING DISEASES ASSOCIATED WITH HYALURONAN OVERPRODUCTION” (THE ROYAL VETERINARY COLLEGE, priority 2021, published 2025)", "type_in_all_cases": "cell-based", "key": {"[1]": {"assay": "Alamar blue toxicity assay (FIG. 1)", "conditions": "below concentrations of 100 μM", "experimental": "(§1) The hyaluronan synthase activity (Prehm, P. and Schumacher, U., Biochem. Pharmacol. 2004, 68, 1401-1410), the cytotoxicity of the drugs (O'Brien, J. et al., Eur. J. Biochem. 2000, 267, 5421-5426), proteoglycan synthesis rate, hyaluronan (Prehm, P. J. Rheumatol., 2005, 32, 690-696) and proteoglycan (Bjornsson, S. Anal. Biochem. 1993, 210, 282-291) were determined as described. The effect of the prenylflavonoids on the MRP5 export rate was measured with fluorescein diacetate as described (Schulz, T., Schumacher, U., and Prehm, P., J Biol. Chem., 2007, 282, 20999-21004). The determination of the IC50 values on the phosphodiesterase 5 was performed according to the instructions of BPS Bioscience. The culture of bovine chondrocytes in alginate beads and of explants of bovine cartilage was described previously (Deiters, B. and Prehm, P. Arthritis Res. Ther., 2008, 10, R8; Prehm, P. J. Rheumatol. 2005, 32, 690-696). Osteoarthritic reactions were induced in chondrocytes growing in alginate beads by incubation with medium containing 10 ng/ml of II-17 for 6 days, and in cartilage explants with 10 ng/ml of II-17 and 5 ng/ml of II-1α. The supernatants were withdrawn and stored at −20° C. for later analysis. The explants were weighed and extracted with 1 ml of 4 M guanidinium-HCl for 72 hours at 4° C. The proteoglycan concentrations were determined in the extracts.\nThe toxicity was determined by the Alamar blue assay."}, "bovine cartilage slices": {"system": "bovine cartilage slices", "assay": "Collagen loss from cartilage explants (van Gieson staining)", "conditions": "Il-1α, Il-1β and Il-17; 12.5 μM and 50 μM; 14 days", "experimental": "Cartilage explants were incubated with and without a mixture of 10 ng/ml of II-1α, 10 ng/ml of II-1β and 25 ng/ml of II-17 for 14 days. The addition of the cytokines was repeated daily. The tissues were fixed with 3.7% paraformaldehyde for 24 hours, imbedded in paraffin and stained by the van Giesson method.\nCartilage explants were incubated with and without a mixture of 10 ng/ml of 11-17 and 5 ng/ml of II-1α for 14 days. The addition of the cytokines was repeated daily. The tissues were fixed with 3.7% paraformaldehyde for 24 hours, imbedded in paraffin and stained by the van Gieson method (van Gieson, 1. (1889) Laboratory notes of technical methods for the nervous system. New York Medical Journal 50, 57-60).\nIt is known that hyaluronan overproduction leads to collagen degradation from cartilage (Deiters, B. and Prehm, P., Arthritis Res. Ther., 2008, 10, R8; Prehm, P., J. Rheumatol., 2005, 32, 690-696). […] Therefore cartilage explants were incubated with a mixture of the osteoarthritis inducing […] II-1α, II-1β and II-17 with 12.5 μM and 50 μM of the prenylflavonoids for 14 days and collagen was stained by the van Giesson method."}, "chondrosarcoma cells": {"system": "chondrosarcoma cells", "assay": "Uptake of flavonoids into chondrosarcoma cells by intracellular fluorescence", "experimental": "Confluent monolayers of chondrosarcoma cells on 96 well microtiter plates were incubated with 100 μM solutions of flavonoids in serum-free Quantum medium. Changes in fluorescence were monitored from the bottom of the wells at excitation and emission wavelengths of 340 nm and 450 nm for xanthohumol and at 440 nm and 530 nm for quercetin, respectively.\nFlavonoids are weakly fluorescent in aqueous buffer, but greatly enhance the fluorescence in the presence of proteins (Sengupta, B. and Sengupta, P. K., Biochem. Biophys. Res. Commun., 2002, 299, 400-403). This property was used to follow the uptake of quercetin and xanthohumol into chondrosarcoma cells."}, "[2]": {"system": "chondrosarcoma cells (SW1353)", "assay": "Alamar blue staining of chondrosarcoma", "conditions": "Homo sapiens", "experimental": "as §1\nChondrosarcoma cells (SW1353 from the American Type Culture Collection) were grown in Dulbecco's medium supplemented with streptomycin/penicillin (100 units of each/ml), 10% foetal calf serum or in serum free Quantum medium supplemented with streptomycin/penicillin (100 units of each/ml), kanamycin (100 units/ml)."}, "[3]": {"system": "bovine cartilage explants", "assay": "Proteoglycan loss from interleukin activated bovine cartilage explants", "conditions": "Bos taurus; read-out: IC50 Inhibition of proteoglycan loss", "experimental": "Cartilage explants were weighed (average wet weight: 20 mg) incubated in the absence and presence of IL-1 (2 ng/ml) and the inhibitors at various concentrations for 5 days. The tissues were extracted with 1.5 ml of a solution of 4 M guanidinium hydrochloride, 0.1 M ε-aminohexanoid acid, 5 mM benzamidine, 10 mM N-ethylmaleinimide, 0.5 mM phenylmethylsulfonyl fluoride for 3 days at 4° C. The solution was centrifuged for 5 min at 10.000 g and the proteoglycans were determined in the supernatant by the alcian blue method as described (Bjornsson, S., Anal. Biochem., 1993, 210, 282-291).\nBovine cartilage explants were incubated in the absence and presence of interleukin for stimulation of osteoarthritic reactions and the indicated concentrations of the xanthohumol-betaine (FIG. 6A), xanthohumol-prothiazole (FIG. 6B), quercetin-prothiazole (FIG. 6C), quercetin (FIG. 6D) and xanthohumol (FIG. 6E) for 5 days. The cartilage explants were weighed and the proteoglycan concentrations were determined in the cartilage explants (solid bars) and culture supernatants (open bars)."}, "fibroblasts": {"system": "fibroblasts", "assay": "Alamar blue staining of fibroblasts", "conditions": "Fibroblast", "experimental": "as §1"}, "[4]": {"system": "hyaluronan export from chondrosarcoma cells", "assay": "Inhibition of hyaluronan export / production in chondrosarcoma cells", "experimental": "as §1\nChondrosarcoma cells were plated on a 96 well microtiter plate and in the presence of increasing flavonoid concentrations. After 2 days the concentration of hyaluronan was determined in the culture supernatant."}}, "note": "pIC50: −log10 of the molar value."}
{"smiles": "COc1cc(O)c(CC=C(C)C)c(O)c1C(=O)/C=C/c1ccc(O)cc1", "note": "[Xanthohumol, reference compound]", "values": [{"measurement": "toxicity in Alamar blue assay", "setting": "[1]", "value": "not toxic"}, {"measurement": "protection of cartilage from collagen loss", "setting": "bovine cartilage slices", "value": "effective at protecting the cartilage from collagen loss"}, {"measurement": "uptake into chondrosarcoma cells (intracellular fluorescence)", "setting": "chondrosarcoma cells", "value": "did not accumulate inside the cells"}, {"measurement": "pIC50", "setting": "[2]", "value": 4.12}, {"measurement": "pIC50", "setting": "[3]", "value": 5.59}, {"measurement": "pIC50", "setting": "fibroblasts", "value": 4.26}, {"measurement": "pIC50", "setting": "[4]", "value": 4.72}]}
